The structures appear in SMILES notation.

This series is described as follows: gradient 5% acetonitrile 3 min, to 50% in 2 min, to 85% in 15 min, held 3 min, 100 µL/min. The settings on record: column: Zorbax Extend-C18 2.1 x 50 mm; eluents: water / acetonitrile, 0.1% formic acid. In outline:
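Retention times come from adduct peaks that were picked computationally and then checked by hand. The standards, pure and pooled in mixtures of ~100 molecules, were run on a Zorbax Extend-C18 column (2.1 × 50 mm, 1.8 μm) at 100 μL/min with water and acetonitrile, each with 0.1% formic acid. Detection was by quadrupole time-of-flight mass spectrometry in positive and negative ionization mode, with a dead volume of 40 μL and a dwell volume of 900 μL.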
Take `COC(=O)C1=C(N)Oc2cc(C)n(CCN(C)C)c(=O)c2C1c1cccc(OC)c1` (stereo not given): the RP-LC retention time stood at 609 s.

For `CCC(C)NC(=O)C1COC2(CCN(C(=O)CC(C)(C)C)CC2)N1C(=O)c1ccc(OC)cc1` (stereo not given), the RP-LC retention time worked out at 760 s.

`O=C(c1ccccc1F)N1CCN(c2cc(-c3cccs3)[nH]n2)CC1` yielded an RP-LC retention time of 771 s.

`O=C1CCc2cc(NC(=O)c3cc(-c4ccccc4)nc4ccccc34)ccc2N1` returned an RP-LC retention time of 818 s.

Molecule `CCN(C(=O)Cn1c(CN(C)C(=O)c2ccco2)nc2ccccc21)c1ccccc1` gave an RP-LC retention time of 704 s.

As for `COC(=O)N1CCN(C(=O)Cc2ccc(Cl)c(Cl)c2)C(CN2CCCC2)C1` (stereo not given), the RP-LC retention time was 688 s.

With `Cc1ccc(Nc2c(-c3ccccc3)nc3ccc(Br)cn23)cc1`, the RP-LC retention time was 881 s.

In the case of `Cc1ccc(-c2cn3cc(C(=O)NC(C)c4cccnc4)ccc3n2)cc1C` (stereo not given), the RP-LC retention time came to 585 s.

`COC(=O)c1ccc(C2CC(=O)NC3=C2C(=O)C(C(=O)OC)C(C)C3)cc1` (stereo not given) registered an RP-LC retention time of 719 s.

Molecule `CC(C)n1cnc(S(=O)(=O)N2CCCC(C(=O)Nc3ccc(F)c(Cl)c3)C2)c1` (stereo not given) showed an RP-LC retention time of 848 s.

Regarding `COc1ccc2cc(C(=O)Nc3ccc(F)cc3C)[nH]c2c1`, the RP-LC retention time is 806 s.

Consider `CC(C)(C)NC(=O)C1CCN(S(C)(=O)=O)c2cc(Cl)ccc2O1` (stereo not given), for which the RP-LC retention time is 898 s.

Consider `Cc1cc(C)cc(NC(=O)Cn2c(-c3cnccn3)nc(C)c(C)c2=O)c1`, for which the RP-LC retention time is 774 s.

On to `CC(C)c1noc(C2(NC(=O)CCC3CCCC3)CCCCC2)n1`, for which the RP-LC retention time worked out at 1120 s.

For the molecule `COc1cc(C(=O)Nc2nc(-c3ccc(Cl)cc3)cs2)cc(OC)c1OC`, the RP-LC retention time was 1120 s.

`Cn1c(=O)sc2cc(S(=O)(=O)N3CCC(C(=O)NCCc4cccs4)CC3)ccc21` registered an RP-LC retention time of 813 s.

Regarding `O=C1NCCc2c1[nH]c1ccccc21`, the RP-LC retention time was found to be 750 s.

Turning to `CCOC(=O)c1noc2nc(C)nc(N3CCN(c4ccccc4F)CC3)c12`, the RP-LC retention time worked out at 1070 s.

Take `CCn1cc(-c2nc(C(=O)Nc3cc(OC)cc(OC)c3)cs2)c2cccnc21`: the RP-LC retention time came out at 1030 s.

Consider `COc1ccc(Cl)cc1NC(=O)c1cc(C2CC2)n2nccc2n1`, for which the RP-LC retention time came to 1210 s.

`CCOC(=O)CCC(=O)N1CCCC(COCc2ccccc2)C1` (stereo not given): the RP-LC retention time stood at 842 s.

For `CCC(c1cccs1)N1C(=O)[C@H]2CN(S(=O)(=O)c3cccc(OC)c3)C[C@H]2C1=O` (stereo not given in full), the RP-LC retention time was found to be 1010 s.

With `COCCCn1cc(C(=O)N2CCCC2)c2nn(-c3ccccc3)c(=O)c-2c1`, the RP-LC retention time is 647 s.

Molecule `CC(C)C(=O)N1CCCc2ccc(NC(=O)c3ccco3)cc21` showed an RP-LC retention time of 789 s.

Molecule `COCCN(CC(=O)N1CCc2sccc2C1COc1ccccc1F)C(=O)C(C)C` (stereo not given) had an RP-LC retention time of 912 s.

`CC1=C(c2cccc(Cl)c2)S(=O)(=O)N=C1N1CCC(NC(=O)C2CCCO2)CC1` (stereo not given) registered an RP-LC retention time of 771 s.

Molecule `COc1ccc(OC)c(NC(=O)Cn2c(C)cc(-c3nnc(C)o3)c2C)c1` yielded an RP-LC retention time of 776 s.

Consider `COc1ccc(Cn2nccc2NC(=O)COc2ccc(Cl)cc2)cc1`, for which the RP-LC retention time is 882 s.

Consider `CCOC(=O)c1cc[nH]c1CC(=O)NC`, for which the RP-LC retention time came to 672 s.

`CCOc1ccccc1NC(=O)CN1C(=O)CCc2cc(Br)ccc21` came in with an RP-LC retention time of 1000 s.

`c1ccc(Nc2nc(-c3ccc4c(c3)OCO4)cs2)nc1`: the RP-LC retention time came out at 849 s.

In the case of `O=C(Cn1nc(Cc2ccncc2)c2ccccc2c1=O)Nc1ccc(Cl)cn1`, the RP-LC retention time amounted to 618 s.

On to `CCc1nc2cc(N3CCC(C(=O)Nc4ccc(OC)cc4OC)CC3)cnc2nc1CC`, for which the RP-LC retention time turned out to be 877 s.

Turning to `CCN1CCN(CCCNc2ccc(-c3nc(-c4cccc(F)c4)no3)cn2)CC1`, the RP-LC retention time was 634 s.

For `Cc1ccc2[nH]c(=O)nc(-c3ccccc3)c2c1`, the RP-LC retention time was 648 s.

As to `CC(C)C(=O)Nc1ccc(C2(C(=O)NCc3ccco3)CCCCC2)cc1`, the RP-LC retention time amounted to 889 s.

As to `O=C(NC1CCN(Cc2ccccc2)CC1)C1CCN(c2cnc3nccnc3c2)CC1`, the RP-LC retention time amounted to 570 s.

As to `CCC(C)NC(=O)N1CCc2c(c(-c3nc(-c4ccc(F)cc4)no3)nn2C)C1` (stereo not given), the RP-LC retention time worked out at 594 s.

The molecule `Cc1ccc(CN2C[C@@H]3C(=O)N(C)C(=O)[C@@H]3C2)cc1C` came in with an RP-LC retention time of 604 s.

For `CN(C)C[C@@H]1CN(C)C[C@H]1NC(=O)c1ccc(Br)cc1`, the RP-LC retention time stood at 553 s.

`O=C1CC2(CCN(C(=O)C3CC(=O)N(c4ccc(Cl)cc4)C3)CC2)Oc2ccccc21` (stereo not given) registered an RP-LC retention time of 831 s.

For `CC(C)C(=O)Nc1ccc(-n2cnc(C(=O)NCc3ccc(F)cc3F)c2)nc1`, the RP-LC retention time turned out to be 773 s.

`c1ccc(CCc2nc3nccc(-c4cccnc4)n3n2)cc1` gave an RP-LC retention time of 726 s.

The molecule `COc1ccc(-c2nn(-c3ccccc3)cc2C2NC(=O)NC(C)=C2C(=O)OC(C)C)cc1` (stereo not given) displayed an RP-LC retention time of 906 s.

With `CNC(=O)[C@@H]1CN(C(=O)Cc2c(C)noc2C)C[C@H]1c1nc(C)no1`, the RP-LC retention time came out at 599 s.

On to `Cc1sc(NC(=O)c2cccs2)nc1-c1ccc2c(c1)N(C)C(=O)CO2`, for which the RP-LC retention time is 942 s.

In turn, `Cc1cc(C)cc(NC(=O)Cn2ccc3ccc(-c4nnc(C)o4)cc32)c1` registered an RP-LC retention time of 1300 s.

Regarding `CCn1cc(C(=O)N2CCCc3ccccc32)c2nn(-c3ccccc3)c(=O)c-2c1`, the RP-LC retention time was 788 s.

Regarding `O=C(c1ccsc1)N(CCc1ccccc1)Cc1ccccn1`, the RP-LC retention time turned out to be 684 s.

Take `Cc1ccc(-c2nnc(-c3ccccc3)o2)cc1S(=O)(=O)N1CCCC1`: the RP-LC retention time was 1020 s.

In turn, `COc1cccc(-c2cc3n(n2)CCCN(C(=O)c2ccc(OC)c(OC)c2)C3)c1` came in with an RP-LC retention time of 654 s.

In turn, `COc1ccc(-c2nc(C3CC(=O)N(c4ccc(OC)c(OC)c4)C3)no2)c(OC)c1` (stereo not given) returned an RP-LC retention time of 797 s.

`CCCC(C(=O)OCCN(CC)CC)(c1ccccc1)c1ccccc1` registered an RP-LC retention time of 920 s.

With `O=C(CCc1nnc2c3cc(-c4ccccc4)nn3ccn12)N1CCN(C2CCCCC2)CC1`, the RP-LC retention time was found to be 628 s.

`COc1ccc(C(=O)NC2CCN(c3cc(-c4ccc(Cl)cc4)[nH]n3)C2)cc1OC` (stereo not given): the RP-LC retention time amounted to 738 s.

For the molecule `CCOC(=O)c1nc(Nc2cc(Cl)ccc2C)c2ccccc2n1`, the RP-LC retention time is 929 s.

With `CCN(CC)CCCNS(=O)(=O)c1cc(-c2cc(C)no2)cs1`, the RP-LC retention time was determined as 619 s.

Turning to `CS(=O)(=O)c1ccccc1C(=O)Nc1nnc(-c2cc(Cl)sc2Cl)o1`, the RP-LC retention time amounted to 735 s.

`COc1cccc(N2CCN(c3ccnc(SCC(=O)Nc4ccc(Cl)cc4F)n3)CC2)c1` displayed an RP-LC retention time of 941 s.

Turning to `COc1ccc(S(=O)(=O)NCc2ccc3c(c2)CCN3C(=O)c2ccc(F)cc2)cc1`, the RP-LC retention time turned out to be 927 s.

Take `O=C(NCC(O)C1CCCCC1)c1ccsc1` (stereo not given): the RP-LC retention time was 689 s.

For the molecule `COc1ccc2c(ccn2CC(=O)N[C@@H](CC(C)C)C(=O)O)c1`, the RP-LC retention time amounted to 756 s.

`CCc1ccc(Oc2cc(N3CCC(C(=O)Nc4ccc(C)c(C)c4)CC3)ncn2)cc1` showed an RP-LC retention time of 1160 s.

The molecule `CC1CCN(C(=O)c2ccc3ccnc(N4CCN(c5ccc(Cl)cc5)CC4)c3c2)CC1` registered an RP-LC retention time of 982 s.

The molecule `O=C1C=C(NCCc2ccccc2)c2ccccc2C1=O` yielded an RP-LC retention time of 736 s.

For the molecule `CC(=O)c1ccc2c(c1)N(CCCN(C)C)c1ccccc1S2`, the RP-LC retention time is 741 s.

`CCCN1C(=O)COc2ccc(-c3noc(-c4ccc(C(F)(F)F)cc4)n3)cc21`: the RP-LC retention time came out at 1050 s.

`Cc1ccc(C)c(N2CCN(c3ccnc(SCC(=O)Nc4ccc(C(C)C)cc4)n3)CC2)c1` displayed an RP-LC retention time of 1060 s.

With `COc1ccc2c(c1)C1(CCN(S(=O)(=O)c3ccc(F)c(C)c3)C1)C(=O)N2C` (stereo not given), the RP-LC retention time worked out at 973 s.

The molecule `O=C(Nc1ccc(F)cc1)C1CCCN(c2ncnc3c2nc2n3CCCCC2)C1` (stereo not given) gave an RP-LC retention time of 803 s.

`CCCNC(=O)C1CCCN(c2ccc(=O)n(-c3cccc(F)c3)n2)C1` (stereo not given) had an RP-LC retention time of 699 s.

Take `N#Cc1cccc(S(=O)(=O)N2CCc3nc(-c4ccccc4)ncc3C2)c1`: the RP-LC retention time was 987 s.

`CCN1CCN(c2ncc3c(n2)CC(c2cc(OC)c(OC)c(OC)c2)CC3=O)CC1` (stereo not given) registered an RP-LC retention time of 564 s.

On to `CC(C)NC(=O)Cn1c(=O)c2cnc(-c3ccccc3)nc2n(C)c1=O`, for which the RP-LC retention time worked out at 802 s.

In the case of `CCOc1cccc(Cn2c(=O)c3sccc3n(Cc3nc(-c4ccccc4C)no3)c2=O)c1`, the RP-LC retention time was found to be 1190 s.

Take `Cc1cccc(Cn2nc(-c3nc(C)no3)ccc2=O)c1`: the RP-LC retention time is 789 s.

`CC(C)(CO)NCc1ccc(-c2ccccc2F)o1` registered an RP-LC retention time of 602 s.

`CC1=CC(C)(C)N=C2SC(c3ccc(N)cc3)=NN12` came in with an RP-LC retention time of 635 s.

On to `Cc1[nH]c(C(=O)N2CCCC(C(=O)NCc3ccc(Cl)cc3)C2)c(C)c1C(=O)OC(C)C` (stereo not given), for which the RP-LC retention time was found to be 610 s.

Consider `CC(C)c1ccc(-n2ccnc(NC(=O)Nc3cccc(F)c3)c2=O)cc1`, for which the RP-LC retention time was 1140 s.

The values are drawn from the METLIN SMRT retention time set (Domingo-Almenara et al. 2019).
